Data taken from ChEMBL document CHEMBL1151141, “Antineoplastic agents, 162. Zephyranthes candida” (1990).
In brackets after ≈: the same amount, converted by molar mass.

These compounds were tested on P388 (assay: Cytotoxicity against mouse P388 cells). Settings: read-out: ED50 (the source's name).
Assay type: functional

Structure (SMILES)	EC50 [ng/mL]
O=C1N[C@H]2[C@H](O)[C@H](O)[C@@H](O)C[C@@H]2c2cc3c(c(O)c21)OCO3	3.2 (≈ 0.0103 µM)
O=C1N[C@H]2[C@H](O)[C@H](O)[C@@H](O)C[C@H]2c2cc3c(c(O)c21)OCO3	24 (≈ 0.0776 µM)
CC(=O)Oc1c2c(cc3c1C(=O)N[C@H]1[C@H](OC(C)=O)[C@H](OC(C)=O)[C@@H](OC(C)=O)C[C@H]31)OCO2	3.2 (≈ 0.0067 µM)
